Measurements reported in the supplement of paper PMC10307832.

Key:
Experiment in all cases: relative viability (nuclei count vs DMSO), 5 days (fraction); higher = more cells survive
[1] = compound: CCN1CCC(CC1)N2C=C(N=N2)CNC3=CC4=C(C(=CN=C4C(=C3)Cl)C#N)NC5=CC(=C(C=C5)F)Cl [KIN001-266] + NC(=O)Nc1cc(-c2cccc(F)c2)sc1C(=O)N[C@H]1CCCNC1 [AZD7762] (partner 0.2 µM)
Procedure, shortened: (§1)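 Lung cancer cell lines in 1536-well plates got either a single drug or a fixed anchor-drug dose together with five library-drug doses (not always all listed) in √10 steps, by pin tool, on the day after seeding. Nuclei were counted after 5 days, and relative viability is the treated-to-vehicle ratio of nuclei counts. Values are medians of duplicate plates.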

[2] = compound: CCN1CCC(CC1)N2C=C(N=N2)CNC3=CC4=C(C(=CN=C4C(=C3)Cl)C#N)NC5=CC(=C(C=C5)F)Cl [KIN001-266] + N=C(N)NC(=N)NCCc1ccccc1 [Phenformin] (partner 250 µM)
Procedure, shortened: as §1

[3] = compound: CCN1CCC(CC1)N2C=C(N=N2)CNC3=CC4=C(C(=CN=C4C(=C3)Cl)C#N)NC5=CC(=C(C=C5)F)Cl [KIN001-266] + CS(=O)(=O)N1CCN(Cc2cc3nc(-c4cccc5[nH]ncc45)nc(N4CCOCC4)c3s2)CC1 [Pictilisib] (partner 1 µM)
Procedure, shortened: as §1

[4] = compound: CCN1CCC(CC1)N2C=C(N=N2)CNC3=CC4=C(C(=CN=C4C(=C3)Cl)C#N)NC5=CC(=C(C=C5)F)Cl [KIN001-266] + Cc1nc(NC(=O)N2CCC[C@H]2C(N)=O)sc1-c1ccnc(C(C)(C)C(F)(F)F)c1 [Alpelisib] (partner 2 µM)
Procedure, shortened: as §1

| Cell Line | relative viability ([1]; first compound 0.08 µM) | relative viability ([1]; first compound 0.253 µM) | relative viability ([1]; first compound 0.8 µM) | relative viability ([1]; first compound 2.53 µM) | relative viability ([1]; first compound 8 µM) | relative viability ([2]; first compound 0.08 µM) | relative viability ([2]; first compound 0.253 µM) | relative viability ([2]; first compound 0.8 µM) | relative viability ([2]; first compound 2.53 µM) | relative viability ([2]; first compound 8 µM) | relative viability ([3]; first compound 0.08 µM) | relative viability ([3]; first compound 0.253 µM) | relative viability ([3]; first compound 0.8 µM) | relative viability ([3]; first compound 2.53 µM) | relative viability ([3]; first compound 8 µM) | relative viability ([4]; first compound 0.08 µM) | relative viability ([4]; first compound 0.253 µM) | relative viability ([4]; first compound 0.8 µM) | relative viability ([4]; first compound 2.53 µM) | relative viability ([4]; first compound 8 µM) |
| --- | --- | --- | --- | --- | --- | --- | --- | --- | --- | --- | --- | --- | --- | --- | --- | --- | --- | --- | --- | --- |
| NCI-H1915 | 0.703 | 0.729 | 0.687 | 0.729 | 0.727 | 0.365 | 0.379 | 0.354 | 0.379 | 0.36 | 1.03 | 0.949 | 0.947 | 1.05 | 0.781 | 1.05 | 1.06 | 1.01 | 1.04 | 0.97 |
| NCI-H1944 | 0.579 | 0.544 | 0.401 | 0.46 | 0.394 | 0.208 | 0.194 | 0.186 | 0.199 | 0.164 | 0.363 | 0.363 | 0.333 | 0.356 | 0.352 | 0.865 | 0.813 | 0.797 | 0.801 | 0.852 |
| NCI-H1975 | 0.733 | 0.689 | 0.776 | 0.756 | 0.678 | 0.416 | 0.402 | 0.431 | 0.422 | 0.36 | 0.316 | 0.308 | 0.304 | 0.294 | 0.326 | 0.696 | 0.75 | 0.667 | 0.665 | 0.597 |
| NCI-H1993 | 1.06 | 0.815 | 0.673 | 0.827 | 0.624 | 0.505 | 0.493 | 0.506 | 0.49 | 0.575 | 0.872 | 0.691 | 0.967 | 0.837 | 0.976 | 0.664 | 0.682 | 0.692 | 0.642 | 0.634 |
| NCI-H2085 | 0.971 | 1.03 | 0.847 | 0.962 | 0.977 | 0.855 | 0.741 | 0.663 | 0.669 | 0.632 | 0.524 | 0.452 | 0.421 | 0.462 | 0.458 | 0.941 | 0.983 | 0.959 | 1 | 0.795 |
| NCI-H2087 | 1.28 | 1.37 | 1.51 | 1.25 | 0.771 | 0.439 | 0.467 | 0.38 | 0.352 | 0.234 | 1.02 | 0.934 | 0.71 | 0.868 | 0.554 | 1.06 | 1.02 | 1.04 | 1.06 | 0.758 |
| NCI-H2126 | 1.03 | 1.02 | 1 | 0.814 | 1.05 | 0.535 | 0.519 | 0.546 | 0.555 | 0.5 | 0.53 | 0.538 | 0.449 | 0.434 | 0.5 | 0.77 | 0.76 | 0.774 | 0.703 | 0.76 |
| NCI-H2170 | 0.924 | 0.958 | 0.924 | 0.854 | 0.774 | 0.38 | 0.383 | 0.377 | 0.358 | 0.334 | 0.372 | 0.392 | 0.344 | 0.296 | 0.3 | 0.81 | 0.771 | 0.776 | 0.734 | 0.786 |
